Read-outs that look alike come from different tables or passages of the source.
Experiments:
[1] = Stability in buffer at various pH; format: physicochemical; details: for Analyte Peak Area, Average: Standard average 39849828
Protocol: On completion of incubation period, the solution is centrifuged and supernatant is taken. To the supernatant, ice cold acetonitrile containing IS is added, vortexed and injected into LCMS/MS.
API 4000, ESI Agilent 1100 column: Gemini Nx 100 mm×4.6 mm 5.μ; column temperature: 30° C.; eluent A: 0.1% formic acid in water, eluent B: acetonitrile; gradient: 0-2.5 min 95% A, 5% B; 2.5-2.6 min 5% A, 95% B; 2.6-4.2 min 95% A, 5% B; flow rate: 0.8 ml/min; ESI. Q1:464.098, Q3:144.255
Prepared 0.1 mol of citric acid and 0.2 mol of di sodium hydrogen phosphate in water. Buffer pH 2.2, 4 and 7.8 are prepared using citric acid and disodium hydrogen phosphate by adjusting the pH with 0.1N HCl or 1N NaOHpH 7.4: 8.89 g disodium hydrogen phosphate (Solution A) add to 1 liter of water, 1.5601 g sodium di-hydrogen phosphate (solution B) are made up to 1 liter with water; Solution A (19 ml) and Solution B (81 ml) are mixed. SIF/SGF: 2.38 g of SIF original powder (biorelavant media) is dissolved in 1 L of milliQ water. The pH of the solution is adjusted for SIF (7.4) and SGF (2.2) with 0.1N HCl. The ratios of the peak areas (F) at the respective time points in relation to the peak areas at the starting time are calculated

[2] = In vitro stability in rat plasma; format: in vitro ADME; details: conversion to rivaroxaban seen from zero min
Protocol: The final concentration of the test compound in the assay is 5 micromolar. […] C. The 100 microliters of aliquot at time point was removed and diluted with ice cold acetonitrile containing IS (200.mu·L) to stop the reactions. Samples are centrifuged at 10,000 RPM for 5 minutes to precipitate proteins. Supernatants are transferred to micro centrifuge tubes and stored at −20° C. for analysis of LC/MS/MS. The percent parent remaining of the test substance is calculated as ratio of peak area at each time point to peak area ratio at zero min, multiplied by 100.
API 4000, ESI Agilent 1100 column: Gemini Nx 100 mm×4.6 mm 5.1; column temperature: 30° C.; eluent A: 0.1% formic acid in water, eluent B: acetonitrile; gradient: 0-2.5 min 95% A, 5% B; 2.5-2.6 min 5% A, 95% B; 2.6-4.2 min 95% A, 5% B; flow rate: 0.8 ml/min; ESI. Q1:464.098, Q3:144.255

CYP1A2 = CYP1A2 (Homo sapiens (Human), UniProt P05177); assay: CYP inhibition assay; format: in vitro ADME; details: pooled human liver microsomes; extrapolated IC50 derived from 3 μM; read-out: IC50 (μM) of CYP isoforms, 1A2
Protocol: (§1) The ability of substances to inhibit CYP1A2, CYP2C9, CYP2D6, CYP2C19, CYP2J2 and CYP3A4 in humans was investigated with pooled human liver microsomes as enzyme source in the presence of standard substrates (see below) which form CYP-isoform-specific metabolites.
(§2) Standard incubation mixtures comprise NADPH and substrates in 100 mM phosphate buffer (pH 7.4) in a total volume of 200 μl. Test compound are dissolved in acetonitrile. Incubated with pooled human liver microsomes at 37° C. for a defined time. The reactions are stopped by adding 100 μl of acetonitrile in which a suitable internal standard is always present. Precipitated proteins are removed by centrifugation, and the supernatants analyzed by LC-MS/MS.

CYP3A4 = CYP3A4 (Homo sapiens (Human), UniProt P08684); assay: CYP inhibition assay; format: in vitro ADME; details: pooled human liver microsomes; extrapolated IC50 derived from 3 μM; read-out: IC50 (μM) of CYP isoforms, 3A4
Protocol: as §1, §2

[3] = Permeability in caco2 system; format: in vitro ADME; details: human, Caco-2, caco2 system
caco2 system = assay: Permeability in caco2 system; format: in vitro ADME; details: caco2 system
[4] = Intravenous and oral excretion profile in Wistar rats; format: in vivo
Protocol: On the day before administration of the substance, a catheter for obtaining blood is implanted in the jugular vein of the experimental animals (male Wistar rats, body weight 200-250 g) under Isoflurane. anesthesia.
Urine and faeces are taken collected from metabolic cages over the course of 144 h after administration of the substance. The administration volume is 10 ml/kg for oral and 1 ml/kg for IV in male Wistar rats. Intravenous administration is via a formulation of 2% N—N Dimethyl acetamide/ethanol 10%/PEG400 (30%)/water for IV injection (58%) and via Tween80/PEG400/sterile water in the case of oral administration. Urine and faeces collection is 0-4, 4-8, 8-24, 24-48, 48-72, 72-96, 96-120, 120-144 in the case of IV and for oral administration.
Urine and faeces was processed and IS containing Acetonitrile is added to a defined urine/faeces and precipitated. After centrifugation, compound formula (B) and, where appropriate, known cleavage products of the compound formula (B) in the supernatant are determined quantitatively using a suitable LC/MS-MS method.
The measured urine and faeces concentrations are used to calculate parameters of the test substance and of the active ingredient compound (A) liberated there from, such as AUC and Cmax.
Acetonitrile containing IS is added to the study samples, calibration samples and QCs, and the protein is precipitated using acetonitrile. Vortexed and centrifuged and the supernatant is injected by LC-MS/MS (API 4000, AB Sciex). Chromatographic separation is carried out on an Shimadzu UFLC. The injection volume is 10 μl. The separation column used is a Phenomenex Gemini NX 4.6×5μ. 100 mm, adjusted to a temperature of 30° C. A binary mobile phase gradient at 800.mu·l/min is used (A: 0.1% formic acid in water, B: acetonitrile: API 4000, ESI Agilent 1100 column: Gemini Nx 100 mm×4.6 mm 5.μ; column temperature: 30° C.; eluent A: 0.1% formic acid in water, eluent B: acetonitrile; gradient: 0-2.5 min 95% A, 5% B; 2.5-2.6 min 5% A, 95% B; 2.6-4.2 min 95% A, 5% B; flow rate: 0.8 ml/min; ESI. Q1:464.098, Q3:144.255 The temperature of the Turbo V ion source is 500° C. The following MS instrument parameters are used: curtain gas 20 units, ion spray voltage 5 kV, gas 1 50 units gas 2 50 units, CAD gas 6 units. The substances are quantified by peak heights or areas using extracted ion chromatograms of specific MRM experiments.

CYP3A4, sequence (P08684 whole entry, canonical isoform): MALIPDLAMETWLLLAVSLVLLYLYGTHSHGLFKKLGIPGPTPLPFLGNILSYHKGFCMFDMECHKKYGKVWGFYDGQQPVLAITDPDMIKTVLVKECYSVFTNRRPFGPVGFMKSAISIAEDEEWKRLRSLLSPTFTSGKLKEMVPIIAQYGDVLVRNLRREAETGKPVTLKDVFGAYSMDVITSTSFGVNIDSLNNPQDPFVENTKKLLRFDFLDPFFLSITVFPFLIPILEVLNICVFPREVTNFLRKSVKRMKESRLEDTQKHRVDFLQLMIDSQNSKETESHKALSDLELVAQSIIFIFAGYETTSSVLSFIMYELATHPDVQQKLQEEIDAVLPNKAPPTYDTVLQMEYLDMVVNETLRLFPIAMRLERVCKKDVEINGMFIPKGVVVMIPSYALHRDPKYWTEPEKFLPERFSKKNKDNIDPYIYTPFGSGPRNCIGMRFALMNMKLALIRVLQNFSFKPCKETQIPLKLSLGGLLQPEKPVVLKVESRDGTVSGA
CYP1A2, sequence (P05177 whole entry, canonical isoform): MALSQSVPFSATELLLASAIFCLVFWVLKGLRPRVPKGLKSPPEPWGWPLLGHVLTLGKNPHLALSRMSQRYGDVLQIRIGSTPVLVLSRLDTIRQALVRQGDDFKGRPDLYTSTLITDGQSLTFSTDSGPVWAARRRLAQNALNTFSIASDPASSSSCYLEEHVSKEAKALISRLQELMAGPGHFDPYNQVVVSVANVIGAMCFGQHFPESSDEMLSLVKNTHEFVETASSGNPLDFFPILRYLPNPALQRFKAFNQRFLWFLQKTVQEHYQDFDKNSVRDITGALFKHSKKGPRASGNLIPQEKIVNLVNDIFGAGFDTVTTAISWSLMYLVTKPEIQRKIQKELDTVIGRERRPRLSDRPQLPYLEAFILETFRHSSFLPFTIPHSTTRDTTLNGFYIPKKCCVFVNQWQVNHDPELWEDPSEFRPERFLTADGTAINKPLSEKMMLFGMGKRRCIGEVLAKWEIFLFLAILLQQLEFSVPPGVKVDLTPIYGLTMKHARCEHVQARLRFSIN

Analyte Peak Area, Average ([1]; buffer pH 2.1, 24 hr room temperature): 28315038 counts | Analyte Peak Area, Average ([1]; buffer pH 4, 24 hr room temperature): 34879190 counts | Analyte Peak Area, Average ([1]; buffer pH 7.8, 24 hr room temperature): 38907.5 counts | stability in varying pH buffer conditions ([1]; rivaroxaban formation observed by LCMS): degraded in varying pH buffer conditions | Conversion: amount of test product detected [2]: min. Neglible | IC50 (CYP1A2): 1.4 µM | IC50 (CYP3A4): 5.7 µM | Papp ([3]; read-out: Interpretation: permeability, classification based on Papp): > 20 ×10⁻⁶ cm/s | Papp ([3]; read-out: Papp A > B): 17.4 ×10⁻⁶ cm/s | Papp ([3]; read-out: Papp B > A): 40.3 ×10⁻⁶ cm/s | Interpretation: Pgp substrate (efflux of >2) (caco2 system): observed to be a Pgp substrate. | Mean (ng/G) Faeces ([4]; IV 1 mg/Kg, rivaroxaban in faeces, 144 h): BLQ | Mean (ng) Urine ([4]; IV 1 mg/Kg, rivaroxaban in urine, 120 h): BLQ | detectability of test substance in urine and faeces ([4]; after i.v. administration, at the first measurement point): no longer detectable in urine and faeces
Compound: O=CN(C[C@H]1CN(c2ccc(N3CCOCC3=O)cc2)C(=O)O1)C(=O)c1ccc(Cl)s1 [Compound formula B, 5-chloro-N-formyl-N-({(5S)-2-oxo-3-[4-(3-oxomorpholin-4-yl)phenyl]-1,3-oxazolidin-5-yl}methyl)thiophene-2-carboxamide]
amount of rivaroxaban present in faeces as compared to rivaroxaban alone ([4]; Wistar rats): lesser amount of rivaroxaban present in faeces

From patent publication US9359341B2, “Aldehyde derivative of substitute oxazolidinones” (WANBURY LTD., priority 2012, dated 2016)
